Here are results for 1 compound from ChEMBL document CHEMBL5154943, “Crystallography-Guided Optimizations of the Keap1-Nrf2 Inhibitors on the Solvent Exposed Region: From Symmetric to Asymmetric Naphthalenesulfonamides” (J Med Chem, 2022).

Series [1] can be described thus: MRT (0 to infinity) in Sprague-Dawley rat at 20 mg/kg, IG measured upto 24 hrs by LC-MS analysis. Format: ADME, organism-based. The settings on record: in vivo, po.
A short description of series [2]: AUC (0 to 24 hrs) in Sprague-Dawley rat at 20 mg/kg, IG measured upto 24 hrs by LC-MS analysis. To be noted: in vivo, po. Also noted: time < 24 hrs, dose 20 mg/kg, route ig. Format: ADME, organism-based.
Series [3] in a line: AUC (0 to 24 hrs) in Sprague-Dawley rat at 5 mg/kg, iv measured upto 24 hrs by LC-MS analysis. The series is classed as ADME, organism-based. More on the design: time < 24 hrs, dose 5 mg/kg, route iv. The settings on record: in vivo.
Series [4] can be described thus: Half life in Sprague-Dawley rat at 20 mg/kg, IG measured upto 24 hrs by LC-MS analysis. To be noted: in vivo, po. The series is classed as ADME, organism-based.
Series [5] is described as follows: MRT(0 to 24 hrs) in Sprague-Dawley rat at 20 mg/kg, IG measured upto 24 hrs by LC-MS analysis. The settings on record: in vivo, po. The series is classed as ADME, organism-based.
A short description of series [6]: Aqueous solubility of the compound in PBS at pH 7.4 after 24 hrs by HPLC-UV analysis. Format: physicochemical.
Series [7] can be described thus: Aqueous solubility of the compound in PBS at pH 7 after 24 hrs by HPLC-UV analysis. The series is classed as physicochemical.
A short description of series [8]: Cmax in Sprague-Dawley rat at 5 mg/kg, iv measured upto 24 hrs by LC-MS analysis. Format: ADME, organism-based. More on the design: dose 5 mg/kg, time < 24 hrs, route iv. The settings on record: in vivo.
Series [9] is described as follows: Cmax in Sprague-Dawley rat at 20 mg/kg, IG measured upto 24 hrs by LC-MS analysis. Format: ADME, organism-based. Also noted: dose 20 mg/kg, time < 24 hrs, route ig. The settings on record: in vivo, po.
Series [10] is described as follows: Tmax in Sprague-Dawley rat at 5 mg/kg, iv measured upto 24 hrs by LC-MS analysis. Format: ADME, organism-based. To be noted: in vivo.
The nature of series [11]: MRT(0 to 24 hrs) in Sprague-Dawley rat at 5 mg/kg, iv measured upto 24 hrs by LC-MS analysis. Format: ADME, organism-based. To be noted: in vivo.
A short description of series [12]: Oral bioavailability in Sprague-Dawley rat at 20 mg/kg measured upto 24 hrs by LC-MS analysis. Format: ADME, organism-based. To be noted: in vivo.
Series [13] can be described thus: Antiinflammatory activity against LPS-induced mouse peritoneal macrophage assessed as suppression of NO level pretreated with LPS followed by compound addition and measured after 24 hrs by Griess reagent based assay. Format: functional, cell-based.
A short description of series [14]: Half life in Sprague-Dawley rat at 5 mg/kg, iv measured upto 24 hrs by LC-MS analysis. Format: ADME, organism-based. The settings on record: in vivo.
Series [15] is described as follows: Antiinflammatory activity against LPS-induced mouse peritoneal macrophage assessed as inhibition of TNF alpha level after 4 hrs by ELISA method. The series is classed as functional, cell-based.
Series [16] in a line: Aqueous solubility of the compound in PBS at pH 2 after 24 hrs by HPLC-UV analysis. Format: physicochemical.
For another series, the target named is Keap1/Nrf2 (Homo sapiens, UniProt Q14145). The series can be described thus: Inhibition of recombinant N-terminal His6-tagged human Keap1-Nrf2 (322 to 609 residues) (unknown origin) protein-protein interaction expressed in Escherichia coli (DE3) incubated for 60 mins by fluorescence anisotropy assay.
Chain of Keap1/Nrf2 (Q16236 whole entry, the tested form may be a part): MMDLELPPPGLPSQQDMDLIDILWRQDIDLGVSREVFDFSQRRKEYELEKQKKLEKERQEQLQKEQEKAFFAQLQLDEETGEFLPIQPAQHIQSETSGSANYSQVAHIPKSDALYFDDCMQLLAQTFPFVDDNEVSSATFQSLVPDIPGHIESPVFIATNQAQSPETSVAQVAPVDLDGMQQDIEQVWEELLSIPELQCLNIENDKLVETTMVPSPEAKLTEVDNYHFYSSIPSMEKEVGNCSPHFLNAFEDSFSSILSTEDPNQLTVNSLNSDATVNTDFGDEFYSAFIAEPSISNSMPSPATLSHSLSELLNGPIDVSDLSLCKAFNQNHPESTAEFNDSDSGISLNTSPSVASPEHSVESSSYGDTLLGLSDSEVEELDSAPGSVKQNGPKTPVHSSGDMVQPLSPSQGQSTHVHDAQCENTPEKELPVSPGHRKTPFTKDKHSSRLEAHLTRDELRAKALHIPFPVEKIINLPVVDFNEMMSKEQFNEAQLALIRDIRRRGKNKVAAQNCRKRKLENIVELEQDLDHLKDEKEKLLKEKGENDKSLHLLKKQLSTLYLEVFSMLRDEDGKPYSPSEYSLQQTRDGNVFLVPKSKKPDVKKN
Chain of Keap1/Nrf2 (Q14145 whole entry, the tested form may be a part): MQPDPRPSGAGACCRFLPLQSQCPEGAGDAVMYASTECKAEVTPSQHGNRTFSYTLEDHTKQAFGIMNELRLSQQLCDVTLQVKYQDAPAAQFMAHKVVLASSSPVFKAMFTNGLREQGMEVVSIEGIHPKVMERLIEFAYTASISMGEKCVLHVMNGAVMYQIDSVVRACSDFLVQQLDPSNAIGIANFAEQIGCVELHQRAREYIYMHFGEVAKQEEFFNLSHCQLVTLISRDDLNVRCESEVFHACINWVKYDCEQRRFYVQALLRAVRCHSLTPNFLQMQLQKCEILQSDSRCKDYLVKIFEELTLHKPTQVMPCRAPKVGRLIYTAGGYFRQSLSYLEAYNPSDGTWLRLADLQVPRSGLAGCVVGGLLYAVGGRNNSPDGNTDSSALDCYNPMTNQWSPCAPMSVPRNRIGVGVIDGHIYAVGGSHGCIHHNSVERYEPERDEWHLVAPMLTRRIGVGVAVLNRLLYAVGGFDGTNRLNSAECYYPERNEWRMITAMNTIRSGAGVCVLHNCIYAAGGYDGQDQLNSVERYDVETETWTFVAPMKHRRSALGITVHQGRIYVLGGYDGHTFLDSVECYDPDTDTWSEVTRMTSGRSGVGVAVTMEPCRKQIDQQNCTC
In a further series the test system is Peritoneal macrophage. Description: Cytotoxicity against mouse peritoneal macrophages assessed as reduction in cell viability measured after 24 hrs by Cell Titer-Blue assay. The series is classed as functional. In general terms: Resazurin is reduced to fluorescent resorufin, in cell work by metabolically active cells.
Series [17] is described as follows: AUC(0 to infinity) in Sprague-Dawley rat at 20 mg/kg, IG measured upto 24 hrs by LC-MS analysis. The series is classed as ADME, organism-based. Also noted: dose 20 mg/kg, time < 24 hrs, route ig. The settings on record: in vivo, po.
The nature of series [18]: AUC(0 to infinity) in Sprague-Dawley rat at 5 mg/kg, iv measured upto 24 hrs by LC-MS analysis. The settings on record: in vivo. The series is classed as ADME, organism-based. Also noted: dose 5 mg/kg, time < 24 hrs, route iv.
Series [19] can be described thus: MRT(0 to infinity) in Sprague-Dawley rat at 5 mg/kg, iv measured upto 24 hrs by LC-MS analysis. The series is classed as ADME, organism-based. To be noted: in vivo.
The nature of series [20]: Tmax in Sprague-Dawley rat at 20 mg/kg, IG measured for 24 hrs by LC-MS analysis. Format: ADME, organism-based. The settings on record: in vivo, po.

Molecules are shown by their SMILES. Values after ≈ are worked out from the molar mass of the structure shown.

As a reminder, the MRT inf is the average time that molecules of a dose stay in the body. In general, AUC(0-t) refers to exposure summed from dosing to a finite time, without extrapolation to infinity. The term half-life denotes the time needed for the level to fall by half in the phase considered. High values mean slow decline, low ones rapid decline. A word on the MRT last: it is a mean duration of stay, worked out from the concentration-time curve. For orientation: solubility means the concentration that dissolves in the medium under given conditions. For orientation: Cmax means the maximum level reached in the sampled fluid or tissue. The term Tmax denotes the time at which the peak concentration occurs. As a reminder, the bioavailability is the share of a dose that reaches the circulation, judged against a reference dose that is usually intravenous. High values mean good availability, low ones poor availability. What is called EC50 is the midpoint of the concentration-response curve. For orientation: Kd means the equilibrium constant for the complex coming apart. What is called CC50 is the concentration that lowers cell viability or growth by half. What is called AUC(0-inf) is the area under the concentration-time curve extrapolated to infinity. Low values mean low exposure, high ones high exposure. One may read the AUC as the area under the concentration-time curve, a measure of exposure. Low values mean less exposure, high ones more exposure. `CCN1CCN(CCC(=O)Nc2ccc(S(=O)(=O)N(CC(N)=O)c3ccc(N(CC(N)=O)S(=O)(=O)c4ccc(OC)cc4)c4ccccc34)cc2)CC1`: the MRT inf in series [1] stood at 14 h; in series [19] it was 5.94 h. The AUC(0-t) at 24 h in series [2] amounted to 3060 ng·h/mL; in [3], 4560 ng·h/mL. In addition, the half-life in series [4] is 10.9 h. Also, the MRT last at 24 h was determined as 6.71 h in series [5] and 4.64 h in series [11]. In addition, the results for the solubility at 24 h in series [6], in series [7] and in series [16] were 49.3 µg/mL (≈ 64.4 µM), 91.1 µg/mL (≈ 119 µM) and 902 µg/mL (≈ 1180 µM), respectively. Also, the highest concentration (Cmax) is 2630 ng/mL in [8] and 708 ng/mL in series [9]. For the same compound, the time to peak (Tmax) is 0.72 h in series [10] and 1.38 h in series [20]. Besides, the bioavailability in [12] came to 19.9%. Further, the concentration giving a half-maximal response (EC50) in [13] stood at 970 nM; in series [15], 1140 nM. The compound also gave a t1/2 in [14] of 4.31 h. The Kd on Keap1/Nrf2 is 210 nM. Further, in the series on Peritoneal macrophage, the CC50 is above 100000 nM. In series [17], the AUC(0-inf) amounted to 3700 ng·h/mL. In [18], this compound gave an AUC of 4779.24 ng·h/mL.
